Experimental data published in PMC6496074, “The Evolution of Azole Resistance in Candida albicans Sterol 14α-Demethylase (CYP51) through Incremental Amino Acid Substitutions” (Antimicrobial Agents and Chemotherapy, 2019).
Values joined by “and” are separate entries in the source; they are usually repeats but may differ in a detail not shown here. Identical values can stand only once.

Key:
CaCYP51 Y132F = target: T1, CaCYP51 Y132F (Candida albicans, UniProt P10613, Y132F); assay: CYP51 reconstitution assay; format: biochemical
T1 construct: made in house; host or cells: E. coli DH5α (pCWori+)
Procedure: (§1) Azole antifungal agents were added in 2.5 μl dimethyl sulfoxide, followed by 10 min of incubation at 37°C prior to assay initiation with 4 mM β-NADPH-Na4. The samples were then shaken for 15 min at 37°C. Sterol metabolites were recovered by extraction with ethyl acetate, followed by derivatization with 0.1 ml N,O-bis(trimethylsilyl)trifluoroacetamide (BSTFA)–trimethylchlorosilane (TMCS) (99:1) and 0.3 ml anhydrous pyridine (2 h at 80°C), prior to analysis by gas chromatography-mass spectrometry (GC-MS) ([52]). IC50 determinations were performed in duplicate.

CaCYP51 G448E = target: T2, CaCYP51 G448E (Candida albicans, UniProt P10613, G448E); assay: CYP51 reconstitution assay; format: biochemical
T2 construct: made in house; host or cells: E. coli DH5α (pCWori+)
Procedure: as §1

CaCYP51 F449Y = target: T3, CaCYP51 F449Y (Candida albicans, UniProt P10613, F449Y); assay: CYP51 reconstitution assay; format: biochemical
T3 construct: made in house; host or cells: E. coli DH5α (pCWori+)
Procedure: as §1

CaCYP51 V437I = target: T4, CaCYP51 V437I (Candida albicans, UniProt P10613, V437I); assay: CYP51 reconstitution assay; format: biochemical
T4 construct: made in house; host or cells: E. coli DH5α (pCWori+)
Procedure: as §1

CaCYP51 Wild type = target: T5, CaCYP51 Wild type (Candida albicans, UniProt P10613); assay: CYP51 reconstitution assay; format: biochemical
T5 construct: made in house; host or cells: E. coli DH5α (pCWori+)
Procedure: as §1

CaCYP51 S405F = target: T6, CaCYP51 S405F (Candida albicans, UniProt P10613, S405F); assay: CYP51 reconstitution assay; format: biochemical
T6 construct: made in house; host or cells: E. coli DH5α (pCWori+)
Procedure: as §1

CaCYP51 I471T = target: T7, CaCYP51 I471T (Candida albicans, UniProt P10613, I471T); assay: CYP51 reconstitution assay; format: biochemical
T7 construct: made in house; host or cells: E. coli DH5α (pCWori+)
Procedure: as §1

CaCYP51 Y257H = target: T8, CaCYP51 Y257H (Candida albicans, UniProt P10613, Y257H); assay: CYP51 reconstitution assay; format: biochemical
T8 construct: made in house; host or cells: E. coli DH5α (pCWori+)
Procedure: as §1

CaCYP51 D278N = target: T9, CaCYP51 D278N (Candida albicans, UniProt P10613, D278N); assay: CYP51 reconstitution assay; format: biochemical
T9 construct: made in house; host or cells: E. coli DH5α (pCWori+)
Procedure: as §1

CaCYP51 D278N+G464S = target: T10, CaCYP51 D278N+G464S (Candida albicans, UniProt P10613, D278N/G464S); assay: CYP51 reconstitution assay; format: biochemical
T10 construct: made in house; host or cells: E. coli DH5α (pCWori+)
Procedure: as §1

CaCYP51 G464S = target: T11, CaCYP51 G464S (Candida albicans, UniProt P10613, G464S); assay: CYP51 reconstitution assay; format: biochemical
T11 construct: made in house; host or cells: E. coli DH5α (pCWori+)
Procedure: as §1

CaCYP51 R467K = target: T12, CaCYP51 R467K (Candida albicans, UniProt P10613, R467K); assay: CYP51 reconstitution assay; format: biochemical
T12 construct: made in house; host or cells: E. coli DH5α (pCWori+)
Procedure: as §1

CaCYP51 G450E = target: T13, CaCYP51 G450E (Candida albicans, UniProt P10613, G450E); assay: CYP51 reconstitution assay; format: biochemical
T13 construct: made in house; host or cells: E. coli DH5α (pCWori+)
Procedure: as §1

CaCYP51 Y447H = target: T14, CaCYP51 Y447H (Candida albicans, UniProt P10613, Y447H); assay: CYP51 reconstitution assay; format: biochemical
T14 construct: made in house; host or cells: E. coli DH5α (pCWori+)
Procedure: as §1

CaCYP51 F126V = target: T15, CaCYP51 F126V (Candida albicans, UniProt P10613, F126V); assay: CYP51 reconstitution assay; format: biochemical
T15 construct: made in house; host or cells: E. coli DH5α (pCWori+)
Procedure: as §1

CaCYP51 S279F = target: T16, CaCYP51 S279F (Candida albicans, UniProt P10613, S279F); assay: Azole ligand binding (type II difference spectra); settings: 4 μM protein, 22°C, ± standard deviation, triplicate, read-out: dissociation constant (Kd)
T16 construct: made in house; host or cells: E. coli DH5α (pCWori+)
Procedure: (§2) Studies of azole antifungal binding to 4 μM CaCYP51 proteins were performed as previously described ([53]) using quartz split cuvettes with a 4.5-mm light path. […] Azole antifungals were progressively titrated against the CaCYP51 proteins in 0.1 M Tris-HCl (pH 8.1) and 25% glycerol at 22°C, with equivalent volumes of dimethyl sulfoxide also being added to the CYP51-containing compartment of the reference cuvette. The absorbance difference spectra between 500 and 350 nm were determined after each incremental addition of azole, with binding saturation curves constructed from the change in the peak and trough absorbance (ΔApeak-trough) against the azole concentration. The dissociation constant (Kd) of the enzyme-azole complex for each azole was determined by nonlinear regression (Levenberg-Marquardt algorithm) using a rearrangement of the Morrison equation for tight ligand binding ([54], [55]). Tight binding is normally observed when the Kd for a ligand is similar to or lower than the concentration of the enzyme present ([56]). Where ligand binding was weak, the Michaelis-Menten equation was used to fit the data. Each binding determination was performed in triplicate. The chemical structures of the azole antifungals used in this study are shown in Fig. S5 in the supplemental material.

CaCYP51 K143R = target: T17, CaCYP51 K143R (Candida albicans, UniProt P10613, K143R); assay: Azole ligand binding (type II difference spectra); settings: 4 μM protein, 22°C, ± standard deviation, triplicate, read-out: dissociation constant (Kd)
T17 construct: made in house; host or cells: E. coli DH5α (pCWori+)
Procedure: as §2

CaCYP51 G307S+G450E = target: T18, CaCYP51 G307S+G450E (Candida albicans, UniProt P10613, G307S/G450E); assay: Azole ligand binding (type II difference spectra)
T18 construct: made in house; host or cells: E. coli DH5α (pCWori+)
Procedure: as §2

CaCYP51 Y132F+F145L [1] = target: T19, CaCYP51 Y132F+F145L (Candida albicans, UniProt P10613, F145L/Y132F); assay: Azole ligand binding (type II difference spectra)
T19 construct: made in house; host or cells: E. coli DH5α (pCWori+)
Procedure: as §2

CaCYP51 Y132F+K143R = target: T20, CaCYP51 Y132F+K143R (Candida albicans, UniProt P10613, K143R/Y132F); assay: Azole ligand binding (type II difference spectra)
T20 construct: made in house; host or cells: E. coli DH5α (pCWori+)
Procedure: as §2

CaCYP51 G307S = target: T21, CaCYP51 G307S (Candida albicans, UniProt P10613, G307S); assay: Azole ligand binding (type II difference spectra); settings: 4 μM protein, 22°C, ± standard deviation, triplicate, read-out: dissociation constant (Kd)
T21 construct: made in house; host or cells: E. coli DH5α (pCWori+)
Procedure: as §2

CaCYP51 Y132F+F145L [2] = assay: CYP51 reconstitution assay; format: biochemical, Candida albicans; settings: Y132F+F145L
Procedure: as §1

[3] = 0.25 h, 4 μM triazole, % of activity without triazole, read-out: Residual CYP51 activity (%) ± SD

T10 sequence (P10613 whole entry, looked up, stated change not applied): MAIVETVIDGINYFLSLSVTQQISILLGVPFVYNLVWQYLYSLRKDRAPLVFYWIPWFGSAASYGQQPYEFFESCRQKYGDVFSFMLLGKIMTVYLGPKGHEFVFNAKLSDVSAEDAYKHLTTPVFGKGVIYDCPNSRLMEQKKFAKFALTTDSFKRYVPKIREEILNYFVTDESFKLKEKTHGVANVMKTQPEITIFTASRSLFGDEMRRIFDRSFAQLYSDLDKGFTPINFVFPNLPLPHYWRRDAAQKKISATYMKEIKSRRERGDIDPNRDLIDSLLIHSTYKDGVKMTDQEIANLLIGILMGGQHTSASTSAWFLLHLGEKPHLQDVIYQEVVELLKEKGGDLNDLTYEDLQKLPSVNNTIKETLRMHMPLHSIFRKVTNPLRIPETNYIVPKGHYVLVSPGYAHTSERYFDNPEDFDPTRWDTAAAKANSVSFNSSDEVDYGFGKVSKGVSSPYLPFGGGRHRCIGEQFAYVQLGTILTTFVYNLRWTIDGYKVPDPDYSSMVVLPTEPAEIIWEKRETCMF
T11 sequence (P10613 whole entry, looked up, stated change not applied): as above
T6 sequence (P10613 whole entry, looked up, stated change not applied): as above
T7 sequence (P10613 whole entry, looked up, stated change not applied): as above
T2 sequence (P10613 whole entry, looked up, stated change not applied): as above
T5 sequence (P10613 whole entry, looked up, natural form): as the sequence (P10613 whole entry, looked up, stated change not applied) above
T4 sequence (P10613 whole entry, looked up, stated change not applied): as above
T19 sequence (P10613 whole entry, looked up, stated change not applied): as above
T12 sequence (P10613 whole entry, looked up, stated change not applied): as above

OC(Cn1cncn1)(Cn1cncn1)c1ccc(F)cc1F [Fluconazole, fluconazole]
remaining activity at 4 µM (CaCYP51 Y132F; [3]): 7.05 ± 0.27%
IC50 (CaCYP51 Y132F; mean ± SD, duplicate): 606 ± 66 nM
remaining activity at 4 µM (CaCYP51 G448E; [3]): 10.5 ± 0.2%
IC50 (CaCYP51 G448E; mean ± SD, duplicate): 796 ± 87 nM
remaining activity at 4 µM (CaCYP51 F449Y; [3]): 0.76 ± 0.08%
IC50 (CaCYP51 F449Y; mean ± SD, duplicate): 245 ± 28 nM
remaining activity at 4 µM (CaCYP51 V437I; [3]): 0.22 ± 0.06%
IC50 (CaCYP51 V437I; mean ± SD, duplicate): 281 ± 4 nM
remaining activity at 4 µM (CaCYP51 Wild type; 0.25 h, read-out: Residual CYP51 activity (%) ± SD): 0.11 ± 0.09%
IC50 (CaCYP51 Wild type; IC50): 384 ± 19 nM
remaining activity at 4 µM (CaCYP51 S405F; [3]): 11.6 ± 1.41%
IC50 (CaCYP51 S405F; mean ± SD, duplicate): 820 ± 42 nM
remaining activity at 4 µM (CaCYP51 I471T; [3]): 4.35 ± 0.33%
IC50 (CaCYP51 I471T; mean ± SD, duplicate): 600 ± 17 nM
remaining activity at 4 µM (CaCYP51 Y257H; [3]): 3.96 ± 0.18%
IC50 (CaCYP51 Y257H; mean ± SD, duplicate): 512 ± 47 nM
remaining activity at 4 µM (CaCYP51 D278N; [3]): 7.59 ± 0.58%
IC50 (CaCYP51 D278N; mean ± SD, duplicate): 838 ± 27 nM
fold increase in IC50 over wild-type enzyme (CaCYP51 D278N+G464S): 3 fold and 3.2 fold
remaining activity at 4 µM (CaCYP51 D278N+G464S; [3]): 18.26 ± 0.08%
IC50 (CaCYP51 D278N+G464S; mean ± SD, duplicate): 1240 ± 64 nM
remaining activity at 4 µM (CaCYP51 G464S; [3]): 3.05 ± 0.17%
IC50 (CaCYP51 G464S; mean ± SD, duplicate): 455 ± 47 nM
remaining activity at 4 µM (CaCYP51 R467K; [3]): 3.34 ± 0.61%
IC50 (CaCYP51 R467K; mean ± SD, duplicate): 476 ± 80 nM
remaining activity at 4 µM (CaCYP51 G450E; [3]): 18.9 ± 0.94%
IC50 (CaCYP51 G450E; mean ± SD, duplicate): 1080 ± 247 nM
remaining activity at 4 µM (CaCYP51 Y447H; [3]): 4.34 ± 0.51%
IC50 (CaCYP51 Y447H; mean ± SD, duplicate): 483 ± 18 nM
remaining activity at 4 µM (CaCYP51 F126V; [3]): 0.09 ± 0.06%
IC50 (CaCYP51 F126V; mean ± SD, duplicate): 278 ± 27 nM
Kd (CaCYP51 S279F): 232 ± 36 nM
Kd (CaCYP51 K143R): 118 ± 24 nM
Kd, fold higher than wild-type enzyme (CaCYP51 G307S+G450E): 3 fold
Kd (CaCYP51 G307S+G450E; 4 μM protein, 22°C, ± standard deviation, triplicate, read-out: dissociation constant (Kd)): 158 ± 38 nM
Kd (CaCYP51 Y132F+F145L [1]): 202 ± 57 nM
Kd, fold higher than wild-type enzyme (CaCYP51 Y132F+F145L [1]; Y132F+F145L): 4 fold
Kd (CaCYP51 Y132F+K143R): 15600 nM
Kd, fold larger than wild-type enzyme (CaCYP51 Y132F+K143R; Y132F+K143R): 312 fold
Kd (CaCYP51 G307S): 133 ± 13 nM
fold increase in IC50 over wild-type enzyme (CaCYP51 Y132F+F145L [2]): 10 fold and 10.1 fold
